Results from US8778873B2, “Parenteral combination therapy for infective conditions with drug resistant bacterium” (Venus Remedies Limited, priority 2005, dated 2014).

Legend:
[1] = test system: Enterococcus; test: Average MIC data, growth at serial concentrations; format: cell-based
Excerpt: (§1) Minimum Inhibitory Concentration Data
(§2) Average MIC data with growth details in various concentration of ceftriaxone and vancomycin combination of the present invention, ceftriaxone alone and vancomycin alone with following bacteria such as MSSA, Enterococcus, S. pneumoniae, Penicillin resistant streptococcus pneumoniae, MRSA.

[2] = test system: S. aurens; test: Average MIC data, growth at serial concentrations; format: cell-based
Excerpt: as §1, §2

[3] = test system: S. aurens (MRSA); test: Average MIC data, growth at serial concentrations; format: cell-based
Excerpt: as §1, §2

[4] = test system: Streptococcus pneumoniae; test: Average MIC data, growth at serial concentrations; format: cell-based
Excerpt: as §1, §2

[5] = test system: S. pneumoniae; test: Average MIC data, growth at serial concentrations; format: cell-based
Excerpt: as §1, §2

[6] = test system: penicillin- and quinolone-resistant pneumococcal mutant strain; settings: experimental rabbit meningitis; cited from earlier work

CN[C@H](CC(C)C)C(=O)N[C@H]1C(=O)N[C@@H](CC(N)=O)C(=O)N[C@H]2C(=O)N[C@H]3C(=O)N[C@H](C(=O)N[C@H](C(=O)O)c4cc(O)cc(O)c4-c4cc3ccc4O)[C@H](O)c3ccc(c(Cl)c3)Oc3cc2cc(c3O[C@@H]2O[C@H](CO)[C@@H](O)[C@H](O)[C@H]2O[C@H]2C[C@](C)(N)[C@H](O)[C@H](C)O2)Oc2ccc(cc2Cl)[C@H]1O [Vancomycin]
Growth Found: Growth at concentration (Average MIC data) ([1]; 0.125 μg/ml) | Growth at concentration (Average MIC data) ([1]; 0.25 μg/ml) | Growth at concentration (Average MIC data) ([2]; 0.125 μg/ml) | Growth at concentration (Average MIC data) ([2]; 0.25 μg/ml) | Growth at concentration (Average MIC data) ([2]; 0.5 μg/ml) | Growth at concentration (Average MIC data) ([2]; 1 μg/ml) | Growth at concentration (Average MIC data) ([2]; 2 μg/ml) | Growth at concentration (Average MIC data) ([3]; 0.125 μg/ml) | Growth at concentration (Average MIC data) ([3]; 0.25 μg/ml) | Growth at concentration (Average MIC data) ([3]; 0.5 μg/ml) | Growth at concentration (Average MIC data) ([3]; 1 μg/ml) | Growth at concentration (Average MIC data) ([3]; 2 μg/ml) | Growth at concentration (Average MIC data) ([4]; 0.125 μg/ml) | Growth at concentration (Average MIC data) ([4]; 0.25 μg/ml) | Growth at concentration (Average MIC data) ([4]; 0.5 μg/ml) | Growth at concentration (Average MIC data) ([5]; 0.125 μg/ml) | Growth at concentration (Average MIC data) ([5]; 0.25 μg/ml)
No growth: Growth at concentration (Average MIC data) ([1]; 0.5 μg/ml) | Growth at concentration (Average MIC data) ([1]; 1 μg/ml) | Growth at concentration (Average MIC data) ([1]; 2 μg/ml) | Growth at concentration (Average MIC data) ([1]; 4 μg/ml) | Growth at concentration (Average MIC data) ([1]; 8 μg/ml) | Growth at concentration (Average MIC data) ([1]; 16 μg/ml) | Growth at concentration (Average MIC data) ([1]; 32 μg/ml) | Growth at concentration (Average MIC data) ([1]; 64 μg/ml) | Growth at concentration (Average MIC data) ([1]; 128 μg/ml) | Growth at concentration (Average MIC data) ([2]; 4 μg/ml) | Growth at concentration (Average MIC data) ([2]; 8 μg/ml) | Growth at concentration (Average MIC data) ([2]; 16 μg/ml) | Growth at concentration (Average MIC data) ([2]; 32 μg/ml) | Growth at concentration (Average MIC data) ([2]; 64 μg/ml) | Growth at concentration (Average MIC data) ([2]; 128 μg/ml) | Growth at concentration (Average MIC data) ([3]; 4 μg/ml) | Growth at concentration (Average MIC data) ([3]; 8 μg/ml) | Growth at concentration (Average MIC data) ([3]; 16 μg/ml) | Growth at concentration (Average MIC data) ([3]; 32 μg/ml) | Growth at concentration (Average MIC data) ([3]; 64 μg/ml) | Growth at concentration (Average MIC data) ([3]; 128 μg/ml) | Growth at concentration (Average MIC data) ([4]; 1 μg/ml) | Growth at concentration (Average MIC data) ([4]; 2 μg/ml) | Growth at concentration (Average MIC data) ([4]; 4 μg/ml) | Growth at concentration (Average MIC data) ([4]; 8 μg/ml) | Growth at concentration (Average MIC data) ([4]; 16 μg/ml) | Growth at concentration (Average MIC data) ([4]; 32 μg/ml) | Growth at concentration (Average MIC data) ([4]; 64 μg/ml) | Growth at concentration (Average MIC data) ([4]; 128 μg/ml) | Growth at concentration (Average MIC data) ([5]; 0.5 μg/ml) | Growth at concentration (Average MIC data) ([5]; 1 μg/ml) | Growth at concentration (Average MIC data) ([5]; 2 μg/ml) | Growth at concentration (Average MIC data) ([5]; 4 μg/ml) | Growth at concentration (Average MIC data) ([5]; 8 μg/ml) | Growth at concentration (Average MIC data) ([5]; 16 μg/ml) | Growth at concentration (Average MIC data) ([5]; 32 μg/ml) | Growth at concentration (Average MIC data) ([5]; 64 μg/ml) | Growth at concentration (Average MIC data) ([5]; 128 μg/ml)

CO/N=C(\C(=O)N[C@@H]1C(=O)N2C(C(=O)[O-])=C(C[N+]3(C)CCCC3)CS[C@H]12)c1csc(N)n1 [cefepime]
−0.61+/−0.24 Delta log(10) cfu/mL×h: bactericidal activity [6]
